Results taken from patent US9394561B2, “Cyclic peptide production” (National Research Council of Canada, priority 2011, dated 2016).
Entries after “also recorded” stand apart in the source; their conditions may differ. Square brackets hold non-standard residues; d marks the D form. Ends that are not written are not given here.

System: S. vaccaria PCY1
Experiment: In vitro assay of recombinant S. vaccaria PCY1 with wild type and mutant presegetalin substrates, products detected by LC/MS
Type: biochemical, Saponaria vaccaria
Parameters: key to CP (cyclic peptide product detected by LC/MS after in vitro assay) / LP (linear peptide product detected by LC/MS after in vitro assay): +=presence; −=absence
Settings: for cyclic peptide production by S. vaccaria PCY1 (in words) / linear peptide production by S. vaccaria PCY1 (in words): LC/MS and MS/MS; for CP (cyclic peptide product detected by LC/MS after in vitro assay) / LP (linear peptide product detected by LC/MS after in vitro assay): substrates tested for cyclization by S. vaccaria PCY1
Experimental: The gene corresponding to S. vaccaria PCY1 was cloned and expressed in E. coli with a His-tag. HisPur Cobalt Resin™ (Thermo Scientific) was used for purification of recombinant PCY1. The purified PCY1 was quantified using BCA method (Pierce; http://http://www.piercenet.com/) with BSA as a calibration standard. The in vitro assay contained 20 mM Tris buffer (pH 8.5), 100 mM NaCl, 5 mM DTT, 0.2 mg BSA, and 1.5 μg of substrates (wild type and mutant presegetalins, procured from Bio Basic Inc with >90% purity) and was initiated by the addition of 0.3 μg of PCY1, in a total reaction volume of 100 μl. The assay was incubated at 30° C. for up to 1 h and stopped by placing reactions in dry ice. The assays were lyophilized, re-suspended in methanol, evaporated and re-suspended in 50:50 v/v methanol/water for LC/MS analysis.
Ion trap ESI+ LC/MS/MS analysis was used to detect production of cyclic peptides using an Agilent 6320 Ion Trap LC/MS system under default Smart Parameter settings. The analyzer and ion optics were adjusted to achieve proper resolution (Agilent Installation Guide #G2440-90105) using the ESI Tuning Mix (Agilent #G2431A). The mass spectrometer scanned from 50 to 2200 mass units at 8100 mass units sec^−1 with an expected peak width of 0.35 atomic mass units. For auto MS/MS, the trap isolation width was 4 atomic mass units. The associated Agilent 1200 LC was fitted with a Zorbax 300 EXTEND-C18 column (150×2.1 mm, 3.5 μm particle size) maintained at 35° C. The binary solvent system consisted of 90:10 v/v water/acetonitrile containing 0.1% formic acid and 0.1% ammonium formate (solvent A) and 10:90 v/v water/acetonitrile containing 0.1% formic acid and 0.1% ammonium formate (solvent B). The separation gradient was 90:10 A/B to 50:50 A/B in 3 ml over 20 min.
In order to characterize substrate specificity of PCY1 and understand the segetalin A biosynthetic mechanism, a total of 44 substrates (Table 3) were tested for the PCY1 activity and the results are briefly summarized in Table 3. The last two columns in Table 3 summarize product type detected by LC/MS after in vitro assays (CP is cyclic peptide and LP is linear peptide, +=presence, −=absence, NA=not applicable). The 44 substrates were classified as follows: • (A) Presegetalin A1 [14,32], a wild type (WT) precursor of segetalin A • (B) Truncated mutants of presegetalin A1[14,32] • (C) Alanine scanning mutants corresponding to variants of the mature segetalin A sequence • (D) Alanine scanning mutants of the C-terminal region of presegetalin A1[14,32] • (E) D-amino acid mutants corresponding to variants of the mature segetalin A sequence • (F) Insertion mutants corresponding to variants of the mature segetalin A sequence • (G) Other A-class and F-class presegetalins • (H) Putative cyclic peptide precursors from Dianthus caryophyllus

Sequence of S. vaccaria PCY1 (as listed by the source): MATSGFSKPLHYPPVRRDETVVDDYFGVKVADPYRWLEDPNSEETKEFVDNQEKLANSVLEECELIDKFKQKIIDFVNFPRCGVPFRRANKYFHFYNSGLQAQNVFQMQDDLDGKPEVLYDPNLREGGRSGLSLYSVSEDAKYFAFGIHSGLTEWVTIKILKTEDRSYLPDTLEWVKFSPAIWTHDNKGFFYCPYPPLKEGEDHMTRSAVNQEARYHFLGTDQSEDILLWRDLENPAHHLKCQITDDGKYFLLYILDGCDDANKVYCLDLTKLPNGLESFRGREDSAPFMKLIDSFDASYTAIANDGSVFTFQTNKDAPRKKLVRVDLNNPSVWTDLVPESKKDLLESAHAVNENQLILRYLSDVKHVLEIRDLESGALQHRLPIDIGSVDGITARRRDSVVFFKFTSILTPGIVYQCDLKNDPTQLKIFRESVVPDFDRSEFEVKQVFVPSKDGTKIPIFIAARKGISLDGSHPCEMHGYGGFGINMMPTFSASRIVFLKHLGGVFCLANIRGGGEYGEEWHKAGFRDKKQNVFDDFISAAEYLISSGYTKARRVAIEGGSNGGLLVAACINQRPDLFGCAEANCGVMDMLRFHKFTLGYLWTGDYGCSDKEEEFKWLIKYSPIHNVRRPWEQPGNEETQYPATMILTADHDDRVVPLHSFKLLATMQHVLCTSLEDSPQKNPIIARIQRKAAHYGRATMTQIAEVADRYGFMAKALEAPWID

Substance	cyclic peptide production by S. vaccaria PCY1 (in words)	PCY1 activity (total amount of segetalin A produced) (WT precursor, optimized assay condition)	CP (cyclic peptide product detected by LC/MS after in vitro assay)	LP (linear peptide product detected by LC/MS after in vitro assay)	linear peptide production by S. vaccaria PCY1 (in words)	segetalin A production, times lower than the WT substrate (alanine scanning mutants of C-terminal region, FIG. 9)	increase in segetalin A production relative to wild type presegetalin A1[14,32] (alanine scanning mutants of C-terminal region)
1 (GVPVWAFQAKDVENASAPV; listed as Saponaria vaccaria) [compound 1]	segetalin A and the linear form (linear peptide) of segetalin A were produced; also recorded: cyclic peptide products were detected from all of them	3 nmol/mg of protein/min	+	+			
5 (GVPVWAF; Presegetalin A1[14,20]) [compound 5]			−	−			
33 (GVPAVWAFQAKDVENASAPV; Presegetalin A1[14,32] ins 16A17) [compound 33]	both detected		+	+	both detected		
34 (GVPAAAVWAFQAKDVENASAPV; Presegetalin A1[14,32] ins 16AAA17) [compound 34]	produced the expected 9 amino acid cyclic peptide		+	+	linear peptide products		
38 (GVKYAFQPKDSENASAPV; Presegetalin G1[14,31]) [compound 38]	cyclic peptide products were detected from all of them		+	−			
24 (GVPVWAFQAKDVENASAAV; Presegetalin A1[14,32] P31A) [compound 24]	sensitive		+	+		11 times	
3 (GVPVWAFQAKDVENA; Presegetalin A1[14,28]) [compound 3]			−	+	almost equivalent to the linear peptide formed from the WT substrate		
6 (GVPVWA; Presegetalin A1[14,19]) [compound 6]			−				
23 (GVPVWAFQAKDVENASVPV; Presegetalin A1[14,32] A30V) [compound 23]			+	+			
16 (GVPVWAFQAADVENASAPV; Presegetalin A1[14,32] K23A) [compound 16]	sensitive		+	+			
25 (GVPVWAFQAKDVENASAPA; Presegetalin A1[14,32] V32A) [compound 25]			+	+			
8 (GAPVWAFQAKDVENASAPV; Presegetalin A1[14,32] variant aa15 = alanine) [compound 8]			+	+			
9 (GVAVWAFQAKDVENASAPV; Presegetalin A1[14,32] variant aa16 = alanine) [compound 9]			+	+			
36 (GLSFAFPAKDAENASSPV; Presegetalin D1[14,31]) [compound 36]	cyclic peptide products were detected from all of them		+	+			
20 (GVPVWAFQAKDVEAASAPV; Presegetalin A1[14,32] N27A) [compound 20]	sensitive		+	+			
14 (GVPVWAFAAKDVENASAPV; Presegetalin A1[14,32] Q21A) [compound 14]	sensitive		+	+			
30 (GVPVW[dA]FQAKDVENASAPV) [compound 30]	neither cyclic peptide nor linear peptide were detected		−	−	neither cyclic peptide nor linear peptide were detected		
28 (GVP[dV]WAFQAKDVENASAPV) [compound 28]			+	−			
29 (GVPV[dW]AFQAKDVENASAPV) [compound 29]			+	+			
37 (GLSFAFQAKDAENASSPV; Presegetalin D1[14,31] P20Q) [compound 37]	resulted in a 5 amino acid cyclic peptide product		+	−			
35 (GVAWAFQAKDVENASAPV; Presegetalin B1[14,31]) [compound 35]	cyclic peptide products were detected from all of them		+	−			
40 (GLPGWPFQAKDVENASAPV; Presegetalin L1[14,32]) [compound 40]	cyclic peptide products were detected from all of them		+	−			
43 (GPIPFYGFQAKDAENASVPV; - Dianthus Precursor A[14,33]) [compound 43]	small amount of cyclic peptide production		+	−			
Presegetalin A1[14,32]W18w (GVPV[dW]AFQAKDVENASAPV) [No. 29]	relatively weakly converted to cyclic peptide						
22 (GVPVWAFQAKDVENAAAPV; Presegetalin A1[14,32] S29A) [compound 22]	relatively higher amounts of segetalin A than that produced from WT substrate		+	+			30%
19 (GVPVWAFQAKDVANASAPV; Presegetalin A1[14,32] E26A) [compound 19]	relatively higher amounts of segetalin A than that produced from WT substrate		+	+			
15 (GVPVWAFQVKDVENASAPV; Presegetalin A1[14,32] A22V) [compound 15]			+	+			
12 (GVPVWVFQAKDVENASAPV; Presegetalin A1[14,32] variant aa19 = valine) [compound 12]	neither cyclic peptide nor linear peptide was detected		−	−	neither cyclic peptide nor linear peptide was detected		
2 (GVPVWAFQAKDVENAPV; Presegetalin A1[14,30]) [compound 2]				+	almost equivalent to the linear peptide formed from the WT substrate		
26 (G[dV]PVWAFQAKDVENASAPV) [compound 26]			+	+			
